# In the oligonucleotide strings, read from the 5' end, every base follows the letter of its sugar. An asterisk marks phosphorothioate; unmarked linkages are phosphodiester. Other units and linkages are bracketed, terminal groups are in braces. A string of capitals states the bases alone. d = 2'-deoxy (DNA)
# Experiments:
# [1] = cited from earlier work
# HMGA1 = target: T1, HMGA1 (Homo sapiens, UniProt P17096); assay: Electrophoretic mobility shift assay (EMSA), HMGA1 competitive binding against ATf10 DNA; conditions: for formation of HMGA/ATf10 DNA complex in presence of competitor DNA: equal amounts of ATf10 and CG10 or Mix10, ATf10 DNA:HMGA1 1:1
# T1 construct: The cDNA for full length HMGA1b was cloned into pET-30b; made in house; host or cells: Escherichia coli BL21 (DE3)
# T1 sequence (P17096 1-96 isoform P17096-2): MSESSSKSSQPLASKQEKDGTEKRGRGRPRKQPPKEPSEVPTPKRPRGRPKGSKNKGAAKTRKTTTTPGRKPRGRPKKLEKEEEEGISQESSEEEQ
# Procedure: The cDNA for full length HMGA1b was cloned into pET-30b and overexpressed in Eschericia coli (E. Coli) BL21 (DE3). E. coli expressing HMGA1b was cultured at 37° C. to an OD600 measurement of 0.8 to 1.0 OD600. Protein expression was induced by the addition of 1 mM IPTG and shaking at 37° C. for 4-6 hours. HMGA1 was purified by trichloroacetic acid precipitation as described in R. Reeves, HMGA proteins: isolation, biochemical modifications, and nucleosome interactions. Methods in enzymology 375 (2004) 297-322, the disclosure of which is incorporated herein by reference. Overexpressed HMGA1b was further purified with a Sephadex G-25 column in H2O and lyophilized using a standard freezedrying procedure. The samples were resolublized in a 25 mM Tris-HCl (pH 6.5), 50 mM NaCl buffer for analysis.
# The following 28-mer oligonucleotides were purchased from Integrated DNA Technologies (Coralville, Iowa, USA): ATf10 5′-(56FAM)-[…]-3′ (SEQ ID NO: 4), and ATs10 5′-GGGT*T*T*T*T*T*T*T*T*T*[…]-3′ (SEQ ID NO: 5) (the “*” indicates the location of phosphorothioate linkage). ATf10 contained a fluorescence tag to serve as a marker for later analysis. […] AT10f was annealed with its complementary strand without a fluorescence tag, and ATs10 was annealed with a strand with no sulfur substitution. […]
# The HMGA protein samples were prepared in 25 mM Tris-HCl (pH 6.5), 50 mM NaCl, and the concentrations determined based on UV […] absorbance (ε=38,200 mol-1 cm-1). […] The DNA was detected at 495 nm using the VersaDoc™ Imaging System Model 3000 from BIO-RAD Laboratories, Inc. of Hercules, Calif. […]
# In order to determine if HMGA1 DNA binding activity was affected by sulfur substitution in the DNA phosphodiester backbone, fluorescence labeled DNA (ATf10 DNA) was used in competitive binding assays against various sulfur substituted DNAs where different ratios of ATf10 DNA and ATs10 DNA were added to a constant amount of purified HMGA1 (FIG. 1A). […]
# Since ATs10 DNA has no fluorescence label, no signal could be detected when only ATs10DNA was added to HMGA1 (FIG. 1A, lane 9). […]
compound,measurement,setting,value
NC(=O)OC[C@H]1c2c(O)cc(C=O)cc2N2CC3N[C@@H]3[C@]1(O)O2 (stereo partly shown) [FR900482],toxicity in humans,[1],high toxicity
ATs10: 28-mer oligonucleotide with phosphorothioate linkages in the T tract (SEQ ID NO: 5) (DNA dGdGdGdT*dT*dT*dT*dT*dT*dT*dT*dT*dT*dCdGdCdGdGdCdGdGdCdCdCdCdGdCdG; annealed with complementary strand),ATf10 DNA detected in the unshifted position,"HMGA1; 1:1 ratio of ATf10 DNA to ATs10 DNA, ATf10 DNA to HMGA1 1:1.5 (FIG. 1A, lane 4)",approximately half
"CG10: negative control DNA containing only a mixture of C and G (SEQ ID NO: 6) (DNA GGGCCCCCCCCCCCGCGGCGGCCCCGCG; DNA, all phosphodiester, methylation of C not given here)",formation of HMGA/ATf10 DNA complex in presence of competitor DNA,HMGA1,still observed
"Mix10: negative control DNA, random sequence of A, T, C, G with no AT-stretch (SEQ ID NO: 7) (DNA GGGCGTGACTGAGCGCGGCGGCCCCGCG; DNA, all phosphodiester, methylation of C not given here)",formation of HMGA/ATf10 DNA complex in presence of competitor DNA,HMGA1,still observed

# — US9492470B2, “Use of HMGA-targeted phosphorothioate DNA aptamers to suppress carcinogenic activity and increase sensitivity to chemotherapy agents in human cancer cells” (MIAMI UNIVERSITY, priority 2012, dated 2016)
